Test results: ChEMBL document CHEMBL3244171, “[1-(beta-mercapto-beta,beta-cyclopentamethylenepropionic acid),4-valine,-8-D-arginine]vasopressin, a potent and selective inhibitor of the vasopressor response to arginine-vasopressin” (J Med Chem, 1978)
Where a SMILES comes first, the peptide text is derived from it.

How the values were obtained:
[1] = Antioxytocic activity in rat uterus assessed as antagonist activity on oxytocin-induced effect; type: functional, tissue-based
Rattus norvegicus = experiment: Antidiuretic activity in iv dosed rat assessed as agonist activity on arginine-vasopressin-induced effect; type: functional, Urine

CC(C)[C@@H]1NC(=O)[C@H](Cc2ccccc2)NC(=O)[C@H](Cc2ccc(O)cc2)NC(=O)CC(C)(C)SSC[C@@H](C(=O)N2CCC[C@H]2C(=O)N[C@H](CCCNC(=N)N)C(=O)NCC(N)=O)NC(=O)[C@H](CC(N)=O)NC1=O (HELM PEPTIDE1{Y.F.V.N.C.P.[dR].G.[am]}|CHEM1{[CC(C)(CC(=O)[*:1])S[*:2]]}$PEPTIDE1,CHEM1,1:R1-1:R1|PEPTIDE1,CHEM1,5:R3-1:R2$$$V2.0)
pA2 [1]: 7.23

CC(C)[C@@H]1NC(=O)[C@H](Cc2ccccc2)NC(=O)[C@H](Cc2ccc(O)cc2)NC(=O)CC2(CCCCC2)SSC[C@@H](C(=O)N2CCC[C@H]2C(=O)N[C@H](CCCN=C(N)N)C(=O)NCC(N)=O)NC(=O)[C@H](CC(N)=O)NC1=O (HELM PEPTIDE1{Y.F.V.N.C.P.[dR].G.[am]}|CHEM1{[O=C(CC1(S[*:2])CCCCC1)[*:1]]}$PEPTIDE1,CHEM1,1:R1-1:R1|PEPTIDE1,CHEM1,5:R3-1:R2$$$V2.0)
Activity (Rattus norvegicus): 0.1 U/ml
pA2 [1]: 6.62
